According to article PMC3970110 (Bioorganic & medicinal chemistry letters, 2013):

Target: T1, human NAD+-dependent 15-hydroxyprostaglandin dehydrogenase (HPGD, 15-PGDH) (Homo sapiens, UniProt P15428)
T1 sequence (P15428 1-266): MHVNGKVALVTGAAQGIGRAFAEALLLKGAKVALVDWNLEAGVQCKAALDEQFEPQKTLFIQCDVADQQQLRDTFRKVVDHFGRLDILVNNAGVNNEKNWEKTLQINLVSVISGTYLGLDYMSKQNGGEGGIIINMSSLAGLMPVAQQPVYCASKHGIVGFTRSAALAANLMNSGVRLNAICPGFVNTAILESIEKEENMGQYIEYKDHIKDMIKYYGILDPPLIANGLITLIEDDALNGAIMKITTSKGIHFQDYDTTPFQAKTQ
Test: HPGD HTS enzymatic assay
Type: biochemical

Cc1cccc(-n2cnc3cc(C(=O)N4CCCC4)ccc32)c1 [Compound 11i]
decrease in HPGD activity relative to ML148: 20 fold
